How the values were obtained:
Format in all cases: in vivo
[1] = system: Alopecurus myosuroides (ALOMY); assay: Pre-emergence biological efficacy, glasshouse pot test; settings: 312 h, evaluated after 13 days (100=total damage; 0=no damage), read-out: Percentage damage ALOMY; for pest or weed control at 1000 g/ha: pre-emergence, 1,000 g/ha
Method in brief: (§1)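 Scores on a 0–100 damage scale were taken 13 days after spraying. Application rate 1000 or 250 g/ha, one day after sowing, in acetone/water-based aqueous spray containing 0.5% Tween 20.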

[2] = system: Amaranthus retoflexus (AMARE); assay: as above; settings: Amaranthus retroflexus, 312 h, evaluated after 13 days (100=total damage; 0=no damage), read-out: Percentage damage AMARE; for pest or weed control at 1000 g/ha: pre-emergence, 1,000 g/ha
Method in brief: as §1

[3] = system: Echinochloa crus-galli (ECHCG); assay: as above; settings: 312 h, evaluated after 13 days (100=total damage; 0=no damage), read-out: Percentage damage ECHCG; for pest or weed control at 1000 g/ha: pre-emergence, 1,000 g/ha
Method in brief: as §1

[4] = system: Ipomea hederaceae (IPOHE); assay: as above; settings: Ipomoea hederacea, 312 h, evaluated after 13 days (100=total damage; 0=no damage), read-out: Percentage damage IPOHE; for pest or weed control at 1000 g/ha: pre-emergence, 1,000 g/ha
Method in brief: as §1

Setaria faberi (SETFA) [5] = assay: as above; settings: 312 h, evaluated after 13 days (100=total damage; 0=no damage), read-out: Percentage damage SETFA; for pest or weed control at 1000 g/ha: pre-emergence, 1,000 g/ha
Method in brief: as §1

Solanum nigrum (SOLNI) [6] = assay: as above; settings: 312 h, evaluated after 13 days (100=total damage; 0=no damage), read-out: Percentage damage SOLNI; for pest or weed control at 1000 g/ha: pre-emergence, 1,000 g/ha
Method in brief: as §1

[7] = system: Alopecurus myosuroides (ALOMY); assay: Post-emergence biological efficacy, glasshouse pot test; settings: 312 h, evaluated after 13 days (100=total damage; 0=no damage), read-out: Percentage damage caused to weed species, ALOMY; for pest or weed control at 1000 g/ha: post-emergence, 1,000 g/ha
Method in brief: (§2)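 Scored 13 days after spraying on a 0 (no damage) to 100 (total damage) scale. Treatment was a post-emergence spray at 1000 or 250 g/ha, from acetone/water 50:50 plus 0.5% Tween 20, onto 8-day-old plants in soil pots. Growth at 24/16° C, 14 h photoperiod, 65% humidity, watered twice daily.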

[8] = system: Amaranthus retoflexus (AMARE); assay: as above; settings: Amaranthus retroflexus, 312 h, evaluated after 13 days (100=total damage; 0=no damage), read-out: Percentage damage caused to weed species, AMARE; for pest or weed control at 1000 g/ha: post-emergence, 1,000 g/ha
Method in brief: as §2

[9] = system: Echinochloa crus-galli (ECHCG); assay: as above; settings: 312 h, evaluated after 13 days (100=total damage; 0=no damage), read-out: Percentage damage caused to weed species, ECHCG; for pest or weed control at 1000 g/ha: post-emergence, 1,000 g/ha
Method in brief: as §2

[10] = system: Ipomea hederaceae (IPOHE); assay: as above; settings: Ipomoea hederacea, 312 h, evaluated after 13 days (100=total damage; 0=no damage), read-out: Percentage damage caused to weed species, IPOHE; for pest or weed control at 1000 g/ha: post-emergence, 1,000 g/ha
Method in brief: as §2

Setaria faberi (SETFA) [11] = assay: as above; settings: 312 h, evaluated after 13 days (100=total damage; 0=no damage), read-out: Percentage damage caused to weed species, SETFA; for pest or weed control at 1000 g/ha: post-emergence, 1,000 g/ha
Method in brief: as §2

Solanum nigrum (SOLNI) [12] = assay: as above; settings: 312 h, evaluated after 13 days (100=total damage; 0=no damage), read-out: Percentage damage caused to weed species, SOLNI; for pest or weed control at 1000 g/ha: post-emergence, 1,000 g/ha
Method in brief: as §2

Compound | pest or weed control at 1000 g/ha [1] [%] | pest or weed control at 1000 g/ha [2] [%] | pest or weed control at 1000 g/ha [3] [%] | pest or weed control at 1000 g/ha [4] [%] | pest or weed control at 1000 g/ha (Setaria faberi (SETFA) [5]) [%] | pest or weed control at 1000 g/ha (Solanum nigrum (SOLNI) [6]) [%] | pest or weed control at 1000 g/ha [7] [%] | pest or weed control at 1000 g/ha [8] [%] | pest or weed control at 1000 g/ha [9] [%] | pest or weed control at 1000 g/ha [10] [%] | pest or weed control at 1000 g/ha (Setaria faberi (SETFA) [11]) [%] | pest or weed control at 1000 g/ha (Solanum nigrum (SOLNI) [12]) [%] | further results
COC(=O)c1nc(C2CC2)nc(NC(C)C2CC2)c1Cl (stereo not drawn) [Compound 4-171, 5-Chloro-2-cyclopropyl-4-(1-cyclopropylethyl-amino)-6-methoxy-carbonylpyrimidine] | 30 | 90 | 70 | 100 | 40 | 40 | 40 | 100 | 60 | 90 | 90 | 90 | 
COC(=O)c1nc(C2CC2)nc(NC(C)c2ccccc2)c1Cl (stereo not drawn) [Compound 4-174, 5-Chloro-2-cyclopropyl-6-methoxycarbonyl-4-(1-phenylethyl-amino)pyrimidine] | 20 | 80 | 30 | 50 | 20 | 70 | 30 | 100 | 90 | 100 | 90 | 90 | 
COC(=O)c1nc(C2CC2)nc(NC(C)c2ccc(F)cc2)c1Cl (stereo not drawn) [Compound 4-175, 5-Chloro-2-cyclopropyl-4-[1-(4-fluorophenyl)ethyl-amino]-6-methoxy-carbonylpyrimidine] | 10 | 50 | 10 | 70 | 0 | 10 | 20 | 100 | 60 | 100 | 90 | 100 | 
COC(=O)c1nc(C2CC2)nc(NC(C)c2ccc(Cl)cc2)c1Cl (stereo not drawn) [Compound 4-176, 5-Chloro-4-[1-(4-chlorophenyl)ethyl-amino]-2-cyclo-propyl-6-methoxy-carbonylpyrimidine] | 0 | 50 | 20 | 60 | 0 | 0 | 20 | 100 | 50 | 100 | 70 | 100 | 
COC(=O)c1nc(C2CC2)nc(NC(C)c2ccc(Br)cc2)c1Cl (stereo not drawn) [Compound 4-177, 4-[1-(4-Bromophenyl)ethyl-amino]-5-chloro-2-cyclopropyl-6-methoxycarbonyl-pyrimidine] | 0 | 20 | 0 | 20 | 0 | 0 | 20 | 90 | 50 | 100 | 40 | 90 | 
CCCCCc1ccc(C(C)Nc2nc(C3CC3)nc(C(=O)OC)c2Cl)cc1 (stereo not drawn) [Compound 4-178, 5-Chloro-2-cyclopropyl-6-methoxycarbonyl-4-[1-(4-n-pentyl-phenyl)ethylamino]-pyrimidine] | 10 | 60 | 10 | 40 | 10 | 30 | 20 | 70 | 20 | 70 | 30 | 80 | 
COC(=O)c1nc(C2CC2)nc(NC(C)c2cccc(C(F)(F)F)c2)c1Cl (stereo not drawn) [Compound 4-179, 5-Chloro-2-cyclopropyl-6-methoxycarbonyl-4-[1-(3-trifluoro-methylphenyl)ethyl-amino]pyrimidine] |  |  |  |  |  |  |  |  |  |  |  |  | pest or weed control at 250 g/ha ([1]; pre-emergence, 250 g/ha): 0%; pest or weed control at 250 g/ha ([2]; pre-emergence, 250 g/ha): 50%; pest or weed control at 250 g/ha ([3]; pre-emergence, 250 g/ha): 0%; pest or weed control at 250 g/ha ([4]; pre-emergence, 250 g/ha): 0%; pest or weed control at 250 g/ha (Setaria faberi (SETFA) [5]; pre-emergence, 250 g/ha): 0%; pest or weed control at 250 g/ha (Solanum nigrum (SOLNI) [6]; pre-emergence, 250 g/ha): 0%; pest or weed control at 250 g/ha ([7]; post-emergence, 250 g/ha): 30%; pest or weed control at 250 g/ha ([8]; post-emergence, 250 g/ha): 70%; pest or weed control at 250 g/ha ([9]; post-emergence, 250 g/ha): 40%; pest or weed control at 250 g/ha ([10]; post-emergence, 250 g/ha): 60%; pest or weed control at 250 g/ha (Setaria faberi (SETFA) [11]; post-emergence, 250 g/ha): 50%; pest or weed control at 250 g/ha (Solanum nigrum (SOLNI) [12]; post-emergence, 250 g/ha): 80%
COC(=O)c1nc(C2CC2)nc(NC(C)c2ccc(C)cc2C)c1Cl (stereo not drawn) [Compound 4-183, 5-Chloro-2-cyclopropyl-4-[1-(2,4-dimethyl-phenyl)ethylamino]-6-methoxycarbonyl-pyrimidine] | 0 | 30 | 0 | 20 | 0 | 0 | 10 | 70 | 10 | 60 | 20 | 40 | 
COC(=O)c1nc(C2CC2)nc(NC(C)(C)c2ccccc2)c1Cl [Compound 4-189, 5-Chloro-2-cyclopropyl-6-methoxycarbonyl-4-(1-methyl-1-phenyl-ethylamino)-pyrimidine] | 20 | 60 | 0 | 40 | 0 | 50 | 20 | 100 | 0 | 100 | 50 | 90 | 

Reference: patent US20110086759A1, “CHEMICAL COMPOUNDS” (SYNGENTA CROP PROTECTION, INC., priority 2007, published 2011)
